Reference: patent publication US20240025906A1 (NEURON23, INC., priority 2022, published 2024)
Read-outs that look alike come from different tables or passages of the source.

Tests used:
TYK2 JH2 = biological target: T1, TYK2 JH2 (Homo sapiens, UniProt P29597); experiment: TYK2 JH2 binding assay (KINOMEscan KdELECT competitive binding); conditions: TYK2 JH2 domain
T1 construct: purchased DiscoverX (KINOMEscan KdELECT service); host or cells: E. coli BL21-derived (T7 phage display) or HEK-293
In short: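 JH2-domain fragment, expressed as T7 phage tag in BL21-derived E. coli or DNA-tagged from HEK-293, competed with test compound against bead-immobilized biotinylated ligand in binding buffer (0.9% DMSO). 1 h shaking at room temperature; bound kinase eluted with 0.5 μM free ligand and quantified by qPCR. Kd from 11-point 3-fold dilutions.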

[1] = system: JAK1/TYK2 pSTAT5 (Tyr694/699) in THP-1 cell line; experiment: IFNa-stimulated JAK1/TYK2 pSTAT5 (Tyr694/699) inhibition cellular assay, AlphaLISA; type: cell-based; conditions: Homo sapiens, THP-1 cells, AlphaLISA (Assay B)
In short: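 THP-1 cells (2e4/well in HBSS) were preincubated with compound (8 points, 6-fold steps from 10000 nM final) for 1 h at 37 °C, then stimulated with IFNa (added at 100 ng/mL) for 30 min. Lysate pSTAT5 was read by AlphaLISA at 615 nm. IC50 came from a 4-parameter fit with bottom 0 and Hill −1.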

[2] = DiscoverX KINOMEscan KdELECT (Assay A), read-out: Biochemical TYK2_DiscoverX_JH2_BND_Kd
[3] = IFNa-stimulated, read-out: Cellular_THP1_IFNa-pSTATS_TYK2
[4] = KINOMEscan KdELECT (Assay A), read-out: Biochemical TYK2_DiscoverX_JH2_BND_Kd
[5] = IFNa-stimulated pSTAT5 (Tyr694/699), read-out: Cellular_THP1_IFNa-pSTATS_TYK2
[6] = KINOMEscan KdELECT (Assay A), read-out: Biochemical TYK2_JH2_Kd
[7] = IFNa-stimulated, read-out: Cellular THP1_IFNa-pSTATS_IC50

T1 sequence (P29597 589-875 limits assumed): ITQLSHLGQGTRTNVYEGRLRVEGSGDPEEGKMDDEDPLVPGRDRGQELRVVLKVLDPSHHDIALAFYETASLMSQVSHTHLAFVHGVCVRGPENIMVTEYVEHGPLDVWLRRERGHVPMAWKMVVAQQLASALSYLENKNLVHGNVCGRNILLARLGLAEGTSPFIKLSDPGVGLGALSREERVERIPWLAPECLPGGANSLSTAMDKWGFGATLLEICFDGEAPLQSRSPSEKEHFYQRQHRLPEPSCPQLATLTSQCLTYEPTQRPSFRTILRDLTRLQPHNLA

| Kd (TYK2 JH2; [2]) [nM] | IC50 [1, 3] [nM] | Kd (TYK2 JH2; [4]) [nM] | SMILES | further results |
| --- | --- | --- | --- | --- |
| ≤ 100 | ≤ 500 |  | CNc1ncc(-c2nc3ccc(N4CCO[C@H](C)C4)cn3n2)c2cc(NC(=O)[C@@H]3C[C@@H]3F)ncc12 [Example 549, (1S,2S)-2-fluoro-N-(8-(methylamino)-5-(6-((R)-2-methylmorpholino)-[1,2,4]triazolo[1,5-a]pyridin-2-yl)-2,7-naphthyridin-3-yl)cyclopropane-1-carboxamide] |  |
| ≤ 100 | ≤ 500 |  | CNc1ncc(-c2nc3cc(OC)ccc3o2)c2cc(Nc3ccc(OC)cn3)ncc12 [Example 378, 4-(5-methoxybenzo[d]oxazol-2-yl)-N^6-(5-methoxypyridin-2-yl)-N^1-methyl-2,7-naphthyridine-1,6-diamine] |  |
|  |  | ≤ 100 | CNc1ncc(-c2cc3cc(OC)ccc3o2)c2cc(NC(=O)C3CC3)ncc12 [Example 1054] | IC50 [1, 5]: ≤ 500 nM |
|  |  |  | CNc1ncc(-c2nc3ccccc3[nH]2)c2cc(NC(=O)C3CC3)ncc12 [Example 139, N-(5-(1H-benzo[d]imidazol-2-yl)-8-(methylamino)-2,7-naphthyridin-3-yl)cyclopropanecarboxamide] | Kd (TYK2 JH2; [6]): ≤ 100 nM; IC50 [1, 7]: > 500 nM |
| ≤ 100 | > 500 |  | CNc1ncc(-c2nc3ccncc3o2)c2cc(NC(=O)C3CC3)ncc12 [Example 357, N-(8-(methylamino)-5-(oxazolo[5,4-c]pyridin-2-yl)-2,7-naphthyridin-3-yl)cyclopropanecarboxamide] |  |
|  | ≤ 500 | ≤ 100 | CNc1ncc(C#Cc2ccc(OCC3CN(C(C)=O)C3)cc2)c2cc(NC(=O)C3CC3)ncc12 [Example 679, N-(5-((4-((1-acetylazetidin-3-yl)methoxy)phenyl)ethynyl)-8-(methylamino)-2,7-naphthyridin-3-yl)cyclopropanecarboxamide] |  |
|  |  |  | C=Cc1cnc(NC)c2cnc(NC(=O)C3CC3)cc12 [Example 71, N-(8-(methylamino)-5-vinyl-2,7-naphthyridin-3-yl)cyclopropanecarboxamide] | Kd (TYK2 JH2; [6]): ≤ 100 nM; IC50 [1, 7]: > 500 nM |
| ≤ 100 | ≤ 500 |  | CNc1ncc(-c2nc3ccc(N4CCO[C@H](C)C4)cn3n2)c2cc(NC(=O)[C@H]3C[C@H]3F)ncc12 [Example 548, (1R,2R)-2-fluoro-N-(8-(methylamino)-5-(6-((R)-2-methylmorpholino)-[1,2,4]triazolo[1,5-a]pyridin-2-yl)-2,7-naphthyridin-3-yl)cyclopropane-1-carboxamide] |  |
| ≤ 100 | ≤ 500 |  | CCOCCc1cccc2nc(-c3cnc(NC)c4cnc(NC(=O)C5CC5)cc34)nn12 [Example 507, N-(5-(5-(2-ethoxyethyl)-[1,2,4]triazolo[1,5-a]pyridin-2-yl)-8-(methylamino)-2,7-naphthyridin-3-yl)cyclopropanecarboxamide] |  |
| ≤ 100 | ≤ 500 |  | CNc1ncc(-c2nc3cc(OC)ccc3o2)c2cc(NC(=O)[C@@H]3C[C@@H]3C(F)F)ncc12 (single isomer, unassigned) [Example 394] |  |
| ≤ 100 | ≤ 500 |  | CNc1ncc(-c2nc3ccc(N4CCOCC4)cn3n2)c2cc(Nc3ccc(C(C)(C)O)c(F)n3)ncc12 [Example 589, 2-(2-fluoro-6-((8-(methylamino)-5-(6-morpholino-[1,2,4]triazolo[1,5-a]pyridin-2-yl)-2,7-naphthyridin-3-yl)amino)pyridin-3-yl)propan-2-ol] |  |
|  | > 500 | 100 to 1000 | C=C(c1ccc(N2CCO[C@@H](C)C2)cc1)c1cnc(NC)c2cnc(NC(=O)C3CC3)cc12 [Example 788, (S)—N-(8-(methylamino)-5-(1-(4-(2-methylmorpholino)phenyl)vinyl)-2,7-naphthyridin-3-yl)cyclopropanecarboxamide] |  |
|  | ≤ 500 | ≤ 100 | CNc1ncc(C#Cc2ccn3c(C)nnc3c2)c2cc(NC(=O)C3CC3)ncc12 [Example 615, N-(5-((3-methyl-[1,2,4]triazolo[4,3-a]pyridin-7-yl)ethynyl)-8-(methylamino)-2,7-naphthyridin-3-yl)cyclopropanecarboxamide] |  |
|  | ≤ 500 | ≤ 100 | CNc1ncc(C#Cc2ccc3oc(COC)cc3c2)c2cc(NC(=O)C3CC3)ncc12 [Example 717, N-(5-((2-(methoxymethyl)benzofuran-5-yl)ethynyl)-8-(methylamino)-2,7-naphthyridin-3-yl)cyclopropanecarboxamide] |  |
|  |  | ≤ 100 | CNc1ncc(C#Cc2ccc(N3CCN(C)C3=O)cc2)c2cc(NC(=O)C3CC3)ncc12 [Example 1000, N-(5-((4-(3-methyl-2-oxoimidazolidin-1-yl)phenyl)ethynyl)-8-(methylamino)-2,7-naphthyridin-3-yl)cyclopropanecarboxamide] | IC50 [1, 5]: ≤ 500 nM |
| ≤ 100 | ≤ 500 |  | CNc1ncc(-c2nc3cc(N4CCOCC4)ccc3o2)c2cc(NC(=O)[C@@H]3C[C@@H]3CF)ncc12 (single isomer, unassigned) [Example 452] |  |
|  |  | ≤ 100 | CNc1ncc(-c2nc3ccc(N4CCOCC4)cn3n2)c2cc(Nc3cc(C(C)(C)O)ccn3)ncc12 [Example 1088, 2-[2-[[8-(methylamino)-5-(6-morpholino-[1,2,4]triazolo[1,5-a]pyridin-2-yl)-2,7-naphthyridin-3-yl]amino]-4-pyridyl]propan-2-ol] | IC50 [1, 5]: ≤ 500 nM |
|  |  | ≤ 100 | CNc1ncc(C#Cc2cn(C(F)F)c(C)n2)c2cc(NC(=O)C3CC3)ncc12 [Example 1006, N-(5-((1-(difluoromethyl)-2-methyl-1H-imidazol-4-yl)ethynyl)-8-(methylamino)-2,7-naphthyridin-3-yl)cyclopropanecarboxamide] | IC50 [1, 5]: ≤ 500 nM |
| ≤ 100 | ≤ 500 |  | CNc1ncc(-c2nc3ccc(N4CCOCC4)cn3n2)c2cc(NC(=O)[C@H]3C[C@H]3C(F)F)ncc12 (single isomer, unassigned) [Example 534] |  |
| ≤ 100 | ≤ 500 |  | CNc1ncc(-c2nc3cc(N4CCO[C@@H](C)C4)ccc3o2)c2cc(NC(=O)[C@H]3C[C@H]3C)ncc12 [Example 408, (1S,2R)-2-methyl-N-(8-(methylamino)-5-(5-((S)-2-methylmorpholino)benzo[d]oxazol-2-yl)-2,7-naphthyridin-3-yl)cyclopropane-1-carboxamide] |  |
|  |  |  | CCC(=O)c1cnc(NC)c2cnc(NC(=O)C3CC3)cc12 [Example 128, N-((methylamino)-5-propionyl-2,7-naphthyridin-3-yl)cyclopropanecarboxamide] | Kd (TYK2 JH2; [6]): ≤ 100 nM; IC50 [1, 7]: > 500 nM |
| ≤ 100 | ≤ 500 |  | CNc1ncc(-c2nc3cc(OC)ccc3o2)c2cc(NC(=O)CC(F)(F)F)ncc12 [Example 386, 3,3,3-trifluoro-N-(5-(5-methoxybenzo[d]oxazol-2-yl)-8-(methylamino)-2,7-naphthyridin-3-yl)propanamide] |  |
| ≤ 100 | ≤ 500 |  | CNc1ncc(-c2nc3ccc(S(C)(=O)=O)cn3n2)c2cc(NC(=O)C3CC3)ncc12 [Example 497, N-(8-(methylamino)-5-(6-(methylsulfonyl)-[1,2,4]triazolo[1,5-a]pyridin-2-yl)-2,7-naphthyridin-3-yl)cyclopropanecarboxamide] |  |
| ≤ 100 | ≤ 500 |  | CCNc1ncc(-c2nc3ccc(N4CCOCC4)cn3n2)c2cc(NC(=O)C3(F)CC3)ncc12 [Example 580, N-(8-(ethylamino)-5-(6-morpholino-[1,2,4]triazolo[1,5-a]pyridin-2-yl)-2,7-naphthyridin-3-yl)-1-fluorocyclopropane-1-carboxamide] |  |
